Entries after “also recorded” stand apart in the source; their conditions may differ. One block for each molecule: values may come before it.
Legend:
OATP1B3 [1] = target: T1, OATP1B3 (Homo sapiens, UniProt Q9NPD5); assay: Uptake in HEK293 cells overexpressing OATP1B3; type: in vitro ADME; details: probe substrate, functionality check of OATP1B3
T1 sequence (Q9NPD5 1-702): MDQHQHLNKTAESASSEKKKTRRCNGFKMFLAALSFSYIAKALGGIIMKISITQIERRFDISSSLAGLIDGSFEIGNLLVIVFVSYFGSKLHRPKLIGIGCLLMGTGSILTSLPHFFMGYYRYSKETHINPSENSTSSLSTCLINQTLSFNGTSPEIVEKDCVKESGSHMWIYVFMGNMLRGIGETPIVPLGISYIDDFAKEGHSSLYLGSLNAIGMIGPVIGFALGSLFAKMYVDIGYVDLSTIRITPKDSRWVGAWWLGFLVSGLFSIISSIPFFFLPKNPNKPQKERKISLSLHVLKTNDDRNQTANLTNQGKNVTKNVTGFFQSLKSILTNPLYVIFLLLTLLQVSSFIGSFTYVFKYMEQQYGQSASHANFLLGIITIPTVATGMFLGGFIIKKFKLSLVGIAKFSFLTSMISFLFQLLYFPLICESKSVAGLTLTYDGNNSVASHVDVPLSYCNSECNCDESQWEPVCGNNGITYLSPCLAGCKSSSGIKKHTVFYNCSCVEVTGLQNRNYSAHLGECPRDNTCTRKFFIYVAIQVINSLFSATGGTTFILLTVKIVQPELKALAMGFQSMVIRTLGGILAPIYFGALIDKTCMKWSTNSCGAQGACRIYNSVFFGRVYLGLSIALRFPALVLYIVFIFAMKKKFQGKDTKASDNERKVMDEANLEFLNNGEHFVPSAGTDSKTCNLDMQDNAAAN

BCRP = target: T2, BCRP (Homo sapiens, UniProt Q9UNQ0); assay: A-to-B and B-to-A transport in LLC-PK1 cells overexpressing BCRP; type: in vitro ADME; details: probe substrate, LLC-PK1-BCRP compared with LLC-PK1-mock cells
T2 sequence (Q9UNQ0 1-655): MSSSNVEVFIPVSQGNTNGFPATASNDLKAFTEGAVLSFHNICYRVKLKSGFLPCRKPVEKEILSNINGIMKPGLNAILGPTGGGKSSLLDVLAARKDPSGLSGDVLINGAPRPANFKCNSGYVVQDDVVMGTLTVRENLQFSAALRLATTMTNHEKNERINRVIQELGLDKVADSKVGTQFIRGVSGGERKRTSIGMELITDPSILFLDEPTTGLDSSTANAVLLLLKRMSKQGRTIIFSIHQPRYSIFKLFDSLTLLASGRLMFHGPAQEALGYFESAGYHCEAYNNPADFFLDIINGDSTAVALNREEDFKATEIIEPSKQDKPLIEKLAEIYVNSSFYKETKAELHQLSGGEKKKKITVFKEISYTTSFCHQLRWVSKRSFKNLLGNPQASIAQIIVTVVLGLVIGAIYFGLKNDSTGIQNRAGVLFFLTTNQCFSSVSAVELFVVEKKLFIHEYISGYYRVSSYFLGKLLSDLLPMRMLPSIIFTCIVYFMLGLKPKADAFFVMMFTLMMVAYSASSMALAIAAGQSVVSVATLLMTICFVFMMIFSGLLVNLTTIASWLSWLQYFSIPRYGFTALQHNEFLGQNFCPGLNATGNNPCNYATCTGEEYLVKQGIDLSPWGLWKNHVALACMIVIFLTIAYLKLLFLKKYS

OAT3 = target: T3, OAT3 (Homo sapiens, UniProt Q8TCC7); assay: Uptake in HEK293 cells overexpressing OAT3; type: in vitro ADME; details: probe substrate, functionality check of OAT3
T3 sequence (Q8TCC7 1-542): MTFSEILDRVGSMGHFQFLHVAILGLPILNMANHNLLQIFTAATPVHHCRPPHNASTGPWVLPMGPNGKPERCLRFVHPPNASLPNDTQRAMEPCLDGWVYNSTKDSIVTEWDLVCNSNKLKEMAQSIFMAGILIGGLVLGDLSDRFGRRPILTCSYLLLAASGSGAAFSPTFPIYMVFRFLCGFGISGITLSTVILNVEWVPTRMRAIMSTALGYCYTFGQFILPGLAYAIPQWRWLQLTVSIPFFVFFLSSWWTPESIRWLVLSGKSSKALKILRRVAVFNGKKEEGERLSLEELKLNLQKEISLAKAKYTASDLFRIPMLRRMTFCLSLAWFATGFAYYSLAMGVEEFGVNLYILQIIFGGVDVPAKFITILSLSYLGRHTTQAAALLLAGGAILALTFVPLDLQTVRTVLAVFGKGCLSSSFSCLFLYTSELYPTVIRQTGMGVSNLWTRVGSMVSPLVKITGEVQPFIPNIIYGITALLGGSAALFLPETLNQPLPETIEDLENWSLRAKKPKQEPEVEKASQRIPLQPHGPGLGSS

OATP1B1 [2] = target: T4, OATP1B1 (Homo sapiens, UniProt Q9Y6L6); assay: Uptake in HEK293 cells overexpressing OATP1B1; type: in vitro ADME; details: probe substrate, functionality check of OATP1B1
T4 sequence (Q9Y6L6 1-691): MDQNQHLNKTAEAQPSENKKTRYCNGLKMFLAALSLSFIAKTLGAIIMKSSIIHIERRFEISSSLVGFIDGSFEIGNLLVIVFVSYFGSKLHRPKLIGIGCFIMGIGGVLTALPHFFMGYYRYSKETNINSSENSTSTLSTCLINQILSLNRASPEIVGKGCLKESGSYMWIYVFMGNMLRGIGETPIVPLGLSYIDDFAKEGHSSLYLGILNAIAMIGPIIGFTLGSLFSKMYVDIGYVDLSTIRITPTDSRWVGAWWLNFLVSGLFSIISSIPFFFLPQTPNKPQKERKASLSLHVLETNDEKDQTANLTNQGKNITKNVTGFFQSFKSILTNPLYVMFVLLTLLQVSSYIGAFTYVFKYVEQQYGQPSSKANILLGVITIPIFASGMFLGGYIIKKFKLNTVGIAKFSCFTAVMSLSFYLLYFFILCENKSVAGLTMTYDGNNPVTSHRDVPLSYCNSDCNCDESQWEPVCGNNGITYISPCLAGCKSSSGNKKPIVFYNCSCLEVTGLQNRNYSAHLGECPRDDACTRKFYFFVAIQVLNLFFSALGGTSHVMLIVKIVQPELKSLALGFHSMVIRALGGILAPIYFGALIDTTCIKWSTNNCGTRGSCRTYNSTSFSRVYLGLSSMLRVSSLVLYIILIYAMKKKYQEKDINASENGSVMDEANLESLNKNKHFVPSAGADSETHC

P-gp = P-gp (Homo sapiens, UniProt P08183); assay: A-to-B and B-to-A transport in LLC-PK1 cells overexpressing P-gp; type: in vitro ADME; details: pig, LLC-PK1, Net efflux ratio, probe substrate, LLC-PK1-MDR1 compared with LLC-PK1-mock cells
Sequence of P-gp (P08183 whole entry): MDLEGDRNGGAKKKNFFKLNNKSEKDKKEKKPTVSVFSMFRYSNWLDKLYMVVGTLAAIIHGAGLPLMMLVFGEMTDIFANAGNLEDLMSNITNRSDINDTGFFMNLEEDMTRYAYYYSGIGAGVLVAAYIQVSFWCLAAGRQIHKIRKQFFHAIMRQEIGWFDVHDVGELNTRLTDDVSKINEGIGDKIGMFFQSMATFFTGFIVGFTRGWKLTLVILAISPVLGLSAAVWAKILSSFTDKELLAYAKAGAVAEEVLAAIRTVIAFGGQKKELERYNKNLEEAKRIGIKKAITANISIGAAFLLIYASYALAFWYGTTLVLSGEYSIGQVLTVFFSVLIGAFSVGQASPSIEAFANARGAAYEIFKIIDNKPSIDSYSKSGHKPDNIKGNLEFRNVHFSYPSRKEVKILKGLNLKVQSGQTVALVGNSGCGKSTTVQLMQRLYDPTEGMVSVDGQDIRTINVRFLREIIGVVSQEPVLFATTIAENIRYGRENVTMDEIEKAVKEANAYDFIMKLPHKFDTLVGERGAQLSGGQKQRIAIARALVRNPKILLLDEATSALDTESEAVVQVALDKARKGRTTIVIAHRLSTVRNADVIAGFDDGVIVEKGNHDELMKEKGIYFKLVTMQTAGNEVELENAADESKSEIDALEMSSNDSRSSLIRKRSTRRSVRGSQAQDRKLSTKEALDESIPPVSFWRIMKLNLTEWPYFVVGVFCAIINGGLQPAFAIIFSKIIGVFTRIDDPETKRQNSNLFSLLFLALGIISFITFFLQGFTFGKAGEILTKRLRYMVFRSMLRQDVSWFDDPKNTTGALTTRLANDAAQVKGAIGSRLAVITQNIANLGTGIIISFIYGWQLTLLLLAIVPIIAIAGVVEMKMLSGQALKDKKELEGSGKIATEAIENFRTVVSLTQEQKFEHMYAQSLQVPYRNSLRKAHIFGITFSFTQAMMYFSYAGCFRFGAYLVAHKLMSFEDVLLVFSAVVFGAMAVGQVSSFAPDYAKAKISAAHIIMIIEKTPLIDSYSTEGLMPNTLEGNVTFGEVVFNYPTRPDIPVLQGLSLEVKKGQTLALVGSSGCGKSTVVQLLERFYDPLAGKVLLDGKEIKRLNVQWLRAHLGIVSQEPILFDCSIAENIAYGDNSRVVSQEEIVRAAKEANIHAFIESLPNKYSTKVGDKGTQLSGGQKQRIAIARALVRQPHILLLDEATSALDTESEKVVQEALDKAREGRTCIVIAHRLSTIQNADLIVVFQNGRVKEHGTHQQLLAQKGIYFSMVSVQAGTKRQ

OCT1 = target: T5, OCT1 (Homo sapiens, UniProt O15245); assay: Uptake in HEK293 cells overexpressing OCT1; type: in vitro ADME; details: probe substrate, functionality check of OCT1
T5 sequence (O15245 1-554): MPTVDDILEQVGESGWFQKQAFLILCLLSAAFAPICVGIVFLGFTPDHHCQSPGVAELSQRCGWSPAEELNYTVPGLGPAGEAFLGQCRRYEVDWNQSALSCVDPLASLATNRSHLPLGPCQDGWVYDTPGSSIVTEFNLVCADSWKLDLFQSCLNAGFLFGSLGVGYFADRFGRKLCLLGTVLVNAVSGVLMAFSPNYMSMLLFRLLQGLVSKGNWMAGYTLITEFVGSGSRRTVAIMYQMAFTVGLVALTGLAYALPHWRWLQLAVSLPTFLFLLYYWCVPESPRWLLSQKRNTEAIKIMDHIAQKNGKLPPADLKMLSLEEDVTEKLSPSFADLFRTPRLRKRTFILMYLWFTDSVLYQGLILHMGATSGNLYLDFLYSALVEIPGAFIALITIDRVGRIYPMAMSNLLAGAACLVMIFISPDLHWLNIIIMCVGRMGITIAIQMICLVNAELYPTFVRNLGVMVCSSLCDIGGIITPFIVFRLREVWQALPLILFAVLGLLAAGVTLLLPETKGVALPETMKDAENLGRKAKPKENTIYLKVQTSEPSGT

OCT2 = target: T6, OCT2 (Homo sapiens, UniProt O15244); assay: Uptake in HEK293 cells overexpressing OCT2; type: in vitro ADME; details: probe substrate, functionality check of OCT2
T6 sequence (O15244 1-555): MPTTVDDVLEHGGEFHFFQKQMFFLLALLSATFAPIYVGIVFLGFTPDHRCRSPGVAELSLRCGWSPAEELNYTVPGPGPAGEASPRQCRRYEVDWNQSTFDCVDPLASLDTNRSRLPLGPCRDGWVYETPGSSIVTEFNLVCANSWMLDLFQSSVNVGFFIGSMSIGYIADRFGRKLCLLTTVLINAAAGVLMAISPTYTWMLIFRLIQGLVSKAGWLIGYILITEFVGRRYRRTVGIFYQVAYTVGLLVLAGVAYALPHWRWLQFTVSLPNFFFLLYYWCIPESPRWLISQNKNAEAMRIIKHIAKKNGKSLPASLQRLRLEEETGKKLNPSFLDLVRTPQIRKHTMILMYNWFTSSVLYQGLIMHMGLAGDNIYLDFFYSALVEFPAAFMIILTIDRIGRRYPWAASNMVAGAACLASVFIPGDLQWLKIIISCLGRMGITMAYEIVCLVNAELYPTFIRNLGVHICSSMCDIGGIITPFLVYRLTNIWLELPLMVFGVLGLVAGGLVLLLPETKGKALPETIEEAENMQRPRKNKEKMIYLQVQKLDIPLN

OATP1B3 [3] = target: T1, OATP1B3; details: read-out: IC50 as inhibitor of OATP1B3; cited from earlier work
OATP1B1 [4] = target: T4, OATP1B1; details: 10 μM catalposide, HEK293-OATP1B1
OATP1B3 [5] = target: T1, OATP1B3; type: in vitro ADME; details: 10 μM catalposide, HEK293-OATP1B3
[6] = substrate: O=C(O[C@H]1[C@@H]2C=CO[C@@H](O[C@@H]3O[C@H](CO)[C@@H](O)[C@H](O)[C@H]3O)[C@@H]2[C@@]2(CO)O[C@@H]12)c1ccc(O)cc1; assay: Uptake in HEK293 cells overexpressing OATP1B1; type: in vitro ADME; details: other: OATP1B1-mediated uptake, 2–500 μM catalposide, 5 minutes; 37.0 °C

Fold increase in uptake vs HEK293 mock cells (OATP1B3 [1]): 15.0 fold
Molecule: C[C@]12CC[C@@H]3c4ccc(O)cc4CC[C@H]3[C@@H]1CC[C@@H]2O[C@@H]1O[C@H](C(=O)O)[C@@H](O)[C@H](O)[C@H]1O [EG, estradiol-17β-D-glucuronide]

Net efflux ratio (BCRP): 4.6 | Fold increase in uptake vs HEK293 mock cells (OAT3): 18.9 fold | Fold increase in uptake vs HEK293 mock cells (OATP1B1 [2]): 17.3 fold
Molecule: C[C@]12CC[C@@H]3c4ccc(OS(=O)(=O)O)cc4CC[C@H]3[C@@H]1CCC2=O [ES, estrone-3-sulfate]

efflux ratio at 1 h (P-gp): 5.7
Molecule: C[C@H]1O[C@@H](O[C@H]2[C@@H](O)C[C@H](O[C@H]3[C@@H](O)C[C@H](O[C@H]4CC[C@@]5(C)[C@H](CC[C@@H]6[C@@H]5C[C@@H](O)[C@]5(C)[C@@H](C7=CC(=O)OC7)CC[C@]65O)C4)O[C@@H]3C)O[C@@H]2C)C[C@H](O)[C@@H]1O [digoxin]

Molecule: C[n+]1ccc(-c2ccccc2)cc1 [MPP^+, methyl-4-phenylpyridinium]
Fold increase in uptake vs HEK293 mock cells (OCT1): 13.2 fold | Fold increase in uptake vs HEK293 mock cells (OCT2): 17.8 fold

Molecule: Cc1ccc(C)c(OCCCC(C)(C)C(=O)O)c1 [gemfibrozil]
IC50 (OATP1B3 [3]): ~200 µM | Effect on OATP1B1-mediated catalposide uptake (OATP1B1 [4]): decreased to basal levels; also recorded: inhibitory effects | Effect on OATP1B3-mediated catalposide uptake (OATP1B3 [5]): decreased to basal levels; also recorded: inhibitory effects

Molecule: CO[C@H]1/C=C/O[C@@]2(C)Oc3c(C)c(O)c4c(O)c(c(/C=N/N5CCN(C)CC5)c(O)c4c3C2=O)NC(=O)/C(C)=C\C=C\[C@H](C)[C@H](O)[C@@H](C)[C@@H](O)[C@@H](C)[C@H](OC(C)=O)[C@@H]1C [rifampin]
Effect on OATP1B1-mediated catalposide uptake (OATP1B1 [4]): decreased to basal levels; also recorded: inhibitory effects | Effect on OATP1B3-mediated catalposide uptake (OATP1B3 [5]): decreased to basal levels; also recorded: inhibitory effects

B1: OATP1B1 (Homo sapiens) (protein)
chain: MDQNQHLNKTAEAQPSENKKTRYCNGLKMFLAALSLSFIAKTLGAIIMKSSIIHIERRFEISSSLVGFIDGSFEIGNLLVIVFVSYFGSKLHRPKLIGIGCFIMGIGGVLTALPHFFMGYYRYSKETNINSSENSTSTLSTCLINQILSLNRASPEIVGKGCLKESGSYMWIYVFMGNMLRGIGETPIVPLGLSYIDDFAKEGHSSLYLGILNAIAMIGPIIGFTLGSLFSKMYVDIGYVDLSTIRITPTDSRWVGAWWLNFLVSGLFSIISSIPFFFLPQTPNKPQKERKASLSLHVLETNDEKDQTANLTNQGKNITKNVTGFFQSFKSILTNPLYVMFVLLTLLQVSSYIGAFTYVFKYVEQQYGQPSSKANILLGVITIPIFASGMFLGGYIIKKFKLNTVGIAKFSCFTAVMSLSFYLLYFFILCENKSVAGLTMTYDGNNPVTSHRDVPLSYCNSDCNCDESQWEPVCGNNGITYISPCLAGCKSSSGNKKPIVFYNCSCLEVTGLQNRNYSAHLGECPRDDACTRKFYFFVAIQVLNLFFSALGGTSHVMLIVKIVQPELKSLALGFHSMVIRALGGILAPIYFGALIDTTCIKWSTNNCGTRGSCRTYNSTSFSRVYLGLSSMLRVSSLVLYIILIYAMKKKYQEKDINASENGSVMDEANLESLNKNKHFVPSAGADSETHC
Km [6]: 220.5 µM | Vmax [6]: 7.7 pmol/min
